Where two headings read alike, the source gives them in different places.
Columns and labels:
[1] = molecular target: JMJD6^FL; test: CPMG-edited NMR titration, apparent binding constant of 2OG; parameters: species or system human; conditions: CPMG-edited 1H NMR (700 MHz), 20 μM 2OG, 200 μM Zn(II), Tris-d11 pH 7.5, titrated with EDTA-treated JMJD6; mean ± S.D. (n = 3); read-out: 2OG KD^app
Description: (§1) 20 μM 2OG and 200 μM Zn(II) were mixed in deuterated Tris-d11, pH 7.5, and the ^1H NMR signals for 2OG were recorded at 700 MHz ([39]). […] Typically, a 5–10% error was allowed in the curve-fitting process.
(§2) CPMG displacement experiments used a Bruker AV700 NMR machine, as reported previously ([39]). The PROJECT (Periodic Refocusing of J Evolution by Coherence Transfer)-CPMG sequence (90°x − (τ − 180°y − τ − 90°y − τ − 180°y − τ)n − acquisition) was applied ([56]). […] Water suppression was achieved by presaturation ([57], [58]).

[2] = molecular target: JMJD6^Δ344–403; test: as above; parameters: species or system human; conditions: CPMG-edited 1H NMR (700 MHz), 20 μM 2OG, 200 μM Zn(II), Tris-d11 pH 7.5, titrated with EDTA-treated JMJD6; mean ± S.D. (n = 3); read-out: 2OG KD^app
Description: as §1, §2

[3] = system: JMJD6^FL; conditions: read-out: 2OG Km^app; standard hydroxylation assay conditions, 2OG varied 0–150 μM, 37 °C, HEPES-KOH pH 8.0; mean ± S.D. (n = 3)
Description: (§3) JMJD6 activity was assayed using a reaction mixture of 10 μM purified JMJD6 and 100 μM substrate peptide, at 37 °C in 50 mM HEPES-KOH, pH 8.0, buffer supplemented with 100 μM (NH4)2Fe(SO4)2·6H2O (Sigma), 400 μM L-sodium ascorbate (Sigma), and 500 μM disodium 2OG (Fluka). After 30 min, the reaction was quenched by an equal volume of 1% (v/v) aqueous formic acid (Sigma). In a 96-well MALDI plate (Waters), 0.8 μl of CHCA (α-cyano-4-hydroxycinnamic acid, Aldrich) ([…] in 0.1 ml of CHCA solvent) and 0.6 μl of the quenched mixture were placed in a well. After drying, the samples were analyzed by MALDI-TOF MS using a reported procedure ([59], [60]). The kinetic data obtained thereafter were fitted using GraphPad Prism (GraphPad Software) ([59], [60]).

[4] = system: JMJD6^Δ344–403; conditions: read-out: 2OG Km^app; standard hydroxylation assay conditions, 2OG varied 0–150 μM, 37 °C, HEPES-KOH pH 8.0; mean ± S.D. (n = 3)
Description: as §3

[5] = molecular target: T1, JMJD6^Δ363–403 (Homo sapiens, UniProt Q6NYC1); conditions: read-out: 2OG Km^app; standard hydroxylation assay conditions, 2OG varied 0–150 μM, 37 °C, HEPES-KOH pH 8.0; mean ± S.D. (n = 3)
Description: as §3

[6] = system: JMJD6^FL; conditions: read-out: 2OG Km^app; reported for JMJD6^FL; ref Mantri et al. ([23]); cited from earlier work
[7] = molecular target: T1, JMJD6^Δ363–403; test: CPMG-edited NMR titration, apparent binding constant of 2OG; parameters: two more variants (aa 1–362, JMJD6^Δ363–403, and aa 1–343, JMJD6^Δ344–403); His6 (N); made in house; host or cells: Escherichia coli Rosetta2(DE3); conditions: CPMG-edited 1H NMR (700 MHz), 20 μM 2OG, 200 μM Zn(II), Tris-d11 pH 7.5, titrated with EDTA-treated JMJD6; mean ± S.D. (n = 3); read-out: 2OG KD^app
Description: as §1, §2

SMILES: O=C(O)CCC(=O)C(=O)O [Peptide 2OG, 2-oxoglutarate]
- Kd [1]: 2.3 ± 1.6 µM
- Kd [2]: 3.5 ± 2.1 µM
- Km [3]: 31 ± 5.3 µM
- Km [4]: 45 ± 10 µM
- Km [5]: 24 ± 5.4 µM
- Km [6]: 39 µM
- Kd [7]: 3 ± 4.8 µM

Reference: paper PMC6663879, “Biochemical and structural investigations clarify the substrate selectivity of the 2-oxoglutarate oxygenase JMJD6” (The Journal of Biological Chemistry, 2019)
